Experimental data: paper PMC9299836 (eLife, 2022)

Biological target: mGluR2 (Mus musculus, UniProt Q14BI2, A548F)
Assay: Single-molecule FRET (SiMPull) of azi-CRD: population histograms and state occupancy;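 note: Cy3/Cy5-labelled receptor from HEK293T cell lysate captured on anti-FLAG surfaces, apparent FRET efficiency computed from donor and acceptor intensities with crosstalk correction, pooled into population histograms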
Conditions: for smFRET Histogram, Mean: N 3
[1] = azi-CRD, 5 μM modulator, 0 μM glutamate, fraction of total area
[2] = azi-CRD, 5 μM modulator, 15 μM glutamate, fraction of total area

Sequence of mGluR2 (Q14BI2 19-872 A548F): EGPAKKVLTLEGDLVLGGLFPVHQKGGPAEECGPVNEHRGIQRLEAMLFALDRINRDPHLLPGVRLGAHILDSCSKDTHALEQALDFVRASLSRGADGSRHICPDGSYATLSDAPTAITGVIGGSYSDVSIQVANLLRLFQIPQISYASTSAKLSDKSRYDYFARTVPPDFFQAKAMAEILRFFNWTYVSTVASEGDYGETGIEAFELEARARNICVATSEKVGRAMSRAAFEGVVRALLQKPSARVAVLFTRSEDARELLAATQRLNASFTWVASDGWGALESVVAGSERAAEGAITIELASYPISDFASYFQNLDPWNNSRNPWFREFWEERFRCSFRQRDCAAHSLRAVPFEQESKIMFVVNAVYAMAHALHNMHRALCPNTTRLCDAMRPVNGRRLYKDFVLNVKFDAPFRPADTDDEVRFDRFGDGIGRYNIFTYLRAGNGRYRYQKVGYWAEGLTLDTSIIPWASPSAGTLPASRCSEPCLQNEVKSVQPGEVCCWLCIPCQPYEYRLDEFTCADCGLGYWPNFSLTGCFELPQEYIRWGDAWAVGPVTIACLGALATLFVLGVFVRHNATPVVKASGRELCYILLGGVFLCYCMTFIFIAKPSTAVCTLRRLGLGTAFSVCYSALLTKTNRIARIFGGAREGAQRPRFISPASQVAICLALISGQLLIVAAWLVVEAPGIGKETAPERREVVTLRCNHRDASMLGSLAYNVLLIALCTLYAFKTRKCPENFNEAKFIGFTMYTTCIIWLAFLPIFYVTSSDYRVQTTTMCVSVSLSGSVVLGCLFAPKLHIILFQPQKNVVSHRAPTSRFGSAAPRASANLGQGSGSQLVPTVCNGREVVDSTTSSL

smFRET Histogram, Mean (FRET 0, 0μM Glutamate + GPT/Pyruvate + 5μM MNI-137): 5.11E-04 | smFRET Histogram, Mean (FRET 0.02, 0μM Glutamate + GPT/Pyruvate + 5μM MNI-137): 6.64E-04 | smFRET Histogram, Mean (FRET 0.04, 0μM Glutamate + GPT/Pyruvate + 5μM MNI-137): 0.00218 | smFRET Histogram, Mean (FRET 0.06, 0μM Glutamate + GPT/Pyruvate + 5μM MNI-137): 0.00418 | smFRET Histogram, Mean (FRET 0.08, 0μM Glutamate + GPT/Pyruvate + 5μM MNI-137): 0.00801 | smFRET Histogram, Mean (FRET 0.1, 0μM Glutamate + GPT/Pyruvate + 5μM MNI-137): 0.01404 | smFRET Histogram, Mean (FRET 0.1, 15μM Glutamate + 5μM MNI-137): 0.0021 | smFRET Histogram, Mean (FRET 0.12, 0μM Glutamate + GPT/Pyruvate + 5μM MNI-137): 0.02347 | smFRET Histogram, Mean (FRET 0.12, 15μM Glutamate + 5μM MNI-137): 0.00321 | smFRET Histogram, Mean (FRET 0.14, 0μM Glutamate + GPT/Pyruvate + 5μM MNI-137): 0.03681 | smFRET Histogram, Mean (FRET 0.14, 15μM Glutamate + 5μM MNI-137): 0.00506 | smFRET Histogram, Mean (FRET 0.16, 0μM Glutamate + GPT/Pyruvate + 5μM MNI-137): 0.05131 | smFRET Histogram, Mean (FRET 0.16, 15μM Glutamate + 5μM MNI-137): 0.00784 | smFRET Histogram, Mean (FRET 0.18, 0μM Glutamate + GPT/Pyruvate + 5μM MNI-137): 0.06643 | smFRET Histogram, Mean (FRET 0.18, 15μM Glutamate + 5μM MNI-137): 0.01263 | smFRET Histogram, Mean (FRET 0.2, 0μM Glutamate + GPT/Pyruvate + 5μM MNI-137): 0.07988 | smFRET Histogram, Mean (FRET 0.2, 15μM Glutamate + 5μM MNI-137): 0.01781 | smFRET Histogram, Mean (FRET 0.22, 0μM Glutamate + GPT/Pyruvate + 5μM MNI-137): 0.08842 | smFRET Histogram, Mean (FRET 0.22, 15μM Glutamate + 5μM MNI-137): 0.02498 | smFRET Histogram, Mean (FRET 0.24, 0μM Glutamate + GPT/Pyruvate + 5μM MNI-137): 0.08863 | smFRET Histogram, Mean (FRET 0.24, 15μM Glutamate + 5μM MNI-137): 0.03347 | smFRET Histogram, Mean (FRET 0.26, 0μM Glutamate + GPT/Pyruvate + 5μM MNI-137): 0.08743 | smFRET Histogram, Mean (FRET 0.26, 15μM Glutamate + 5μM MNI-137): 0.04243 | smFRET Histogram, Mean (FRET 0.28, 0μM Glutamate + GPT/Pyruvate + 5μM MNI-137): 0.07891 | smFRET Histogram, Mean (FRET 0.28, 15μM Glutamate + 5μM MNI-137): 0.05374 | smFRET Histogram, Mean (FRET 0.3, 0μM Glutamate + GPT/Pyruvate + 5μM MNI-137): 0.06941 | smFRET Histogram, Mean (FRET 0.3, 15μM Glutamate + 5μM MNI-137): 0.06299 | smFRET Histogram, Mean (FRET 0.32, 0μM Glutamate + GPT/Pyruvate + 5μM MNI-137): 0.05758 | smFRET Histogram, Mean (FRET 0.32, 15μM Glutamate + 5μM MNI-137): 0.07069 | smFRET Histogram, Mean (FRET 0.34, 0μM Glutamate + GPT/Pyruvate + 5μM MNI-137): 0.04784 | smFRET Histogram, Mean (FRET 0.34, 15μM Glutamate + 5μM MNI-137): 0.0754 | smFRET Histogram, Mean (FRET 0.36, 0μM Glutamate + GPT/Pyruvate + 5μM MNI-137): 0.03831 | smFRET Histogram, Mean (FRET 0.36, 15μM Glutamate + 5μM MNI-137): 0.07714 | smFRET Histogram, Mean (FRET 0.38, 0μM Glutamate + GPT/Pyruvate + 5μM MNI-137): 0.03079 | smFRET Histogram, Mean (FRET 0.38, 15μM Glutamate + 5μM MNI-137): 0.07309 | smFRET Histogram, Mean (FRET 0.4, 0μM Glutamate + GPT/Pyruvate + 5μM MNI-137): 0.02474 | smFRET Histogram, Mean (FRET 0.4, 15μM Glutamate + 5μM MNI-137): 0.06696 | smFRET Histogram, Mean (FRET 0.42, 15μM Glutamate + 5μM MNI-137): 0.05663 | smFRET Histogram, Mean (FRET 0.44, 0μM Glutamate + GPT/Pyruvate + 5μM MNI-137): 0.01517 | smFRET Histogram, Mean (FRET 0.44, 15μM Glutamate + 5μM MNI-137): 0.0478 | smFRET Histogram, Mean (FRET 0.46, 0μM Glutamate + GPT/Pyruvate + 5μM MNI-137): 0.01122 | smFRET Histogram, Mean (FRET 0.46, 15μM Glutamate + 5μM MNI-137): 0.03818 | smFRET Histogram, Mean (FRET 0.48, 0μM Glutamate + GPT/Pyruvate + 5μM MNI-137): 0.00878 | smFRET Histogram, Mean (FRET 0.48, 15μM Glutamate + 5μM MNI-137): 0.02974 | smFRET Histogram, Mean (FRET 0.5, 0μM Glutamate + GPT/Pyruvate + 5μM MNI-137): 0.0069 | smFRET Histogram, Mean (FRET 0.5, 15μM Glutamate + 5μM MNI-137): 0.02283 | smFRET Histogram, Mean (FRET 0.52, 0μM Glutamate + GPT/Pyruvate + 5μM MNI-137): 0.00522 | smFRET Histogram, Mean (FRET 0.52, 15μM Glutamate + 5μM MNI-137): 0.01756 | smFRET Histogram, Mean (FRET 0.54, 0μM Glutamate + GPT/Pyruvate + 5μM MNI-137): 0.0038 | smFRET Histogram, Mean (FRET 0.54, 15μM Glutamate + 5μM MNI-137): 0.01395 | smFRET Histogram, Mean (FRET 0.56, 0μM Glutamate + GPT/Pyruvate + 5μM MNI-137): 0.00307 | smFRET Histogram, Mean (FRET 0.56, 15μM Glutamate + 5μM MNI-137): 0.01177 | smFRET Histogram, Mean (FRET 0.58, 0μM Glutamate + GPT/Pyruvate + 5μM MNI-137): 0.00238 | smFRET Histogram, Mean (FRET 0.58, 15μM Glutamate + 5μM MNI-137): 0.0101 | smFRET Histogram, Mean (FRET 0.6, 0μM Glutamate + GPT/Pyruvate + 5μM MNI-137): 0.00226 | smFRET Histogram, Mean (FRET 0.6, 15μM Glutamate + 5μM MNI-137): 0.0089 | smFRET Histogram, Mean (FRET 0.62, 15μM Glutamate + 5μM MNI-137): 0.0083 | smFRET Histogram, Mean (FRET 0.64, 0μM Glutamate + GPT/Pyruvate + 5μM MNI-137): 0.00164 | smFRET Histogram, Mean (FRET 0.64, 15μM Glutamate + 5μM MNI-137): 0.00824 | smFRET Histogram, Mean (FRET 0.66, 0μM Glutamate + GPT/Pyruvate + 5μM MNI-137): 0.00119 | smFRET Histogram, Mean (FRET 0.66, 15μM Glutamate + 5μM MNI-137): 0.00778 | smFRET Histogram, Mean (FRET 0.68, 0μM Glutamate + GPT/Pyruvate + 5μM MNI-137): 0.00129 | smFRET Histogram, Mean (FRET 0.68, 15μM Glutamate + 5μM MNI-137): 0.00775 | smFRET Histogram, Mean (FRET 0.7, 0μM Glutamate + GPT/Pyruvate + 5μM MNI-137): 0.00106 | smFRET Histogram, Mean (FRET 0.7, 15μM Glutamate + 5μM MNI-137): 0.00734 | smFRET Histogram, Mean (FRET 0.72, 0μM Glutamate + GPT/Pyruvate + 5μM MNI-137): 9.06E-04 | smFRET Histogram, Mean (FRET 0.72, 15μM Glutamate + 5μM MNI-137): 0.00691 | smFRET Histogram, Mean (FRET 0.74, 0μM Glutamate + GPT/Pyruvate + 5μM MNI-137): 8.03E-04 | smFRET Histogram, Mean (FRET 0.74, 15μM Glutamate + 5μM MNI-137): 0.00635 | smFRET Histogram, Mean (FRET 0.76, 0μM Glutamate + GPT/Pyruvate + 5μM MNI-137): 9.58E-04 | smFRET Histogram, Mean (FRET 0.76, 15μM Glutamate + 5μM MNI-137): 0.00599 | smFRET Histogram, Mean (FRET 0.78, 0μM Glutamate + GPT/Pyruvate + 5μM MNI-137): 9.38E-04 | smFRET Histogram, Mean (FRET 0.78, 15μM Glutamate + 5μM MNI-137): 0.00583 | smFRET Histogram, Mean (FRET 0.8, 0μM Glutamate + GPT/Pyruvate + 5μM MNI-137): 8.49E-04 | smFRET Histogram, Mean (FRET 0.8, 15μM Glutamate + 5μM MNI-137): 0.00559 | smFRET Histogram, Mean (FRET 0.82, 0μM Glutamate + GPT/Pyruvate + 5μM MNI-137): 9.70E-04 | smFRET Histogram, Mean (FRET 0.82, 15μM Glutamate + 5μM MNI-137): 0.00496 | smFRET Histogram, Mean (FRET 0.84, 0μM Glutamate + GPT/Pyruvate + 5μM MNI-137): 0.00112 | smFRET Histogram, Mean (FRET 0.84, 15μM Glutamate + 5μM MNI-137): 0.00504 | smFRET Histogram, Mean (FRET 0.86, 0μM Glutamate + GPT/Pyruvate + 5μM MNI-137): 0.00114 | smFRET Histogram, Mean (FRET 0.86, 15μM Glutamate + 5μM MNI-137): 0.00467 | smFRET Histogram, Mean (FRET 0.88, 0μM Glutamate + GPT/Pyruvate + 5μM MNI-137): 0.0011 | smFRET Histogram, Mean (FRET 0.9, 0μM Glutamate + GPT/Pyruvate + 5μM MNI-137): 0.0013 | smFRET Histogram, Mean (FRET 0.9, 15μM Glutamate + 5μM MNI-137): 0.00455 | smFRET Histogram, Mean (FRET 0.92, 0μM Glutamate + GPT/Pyruvate + 5μM MNI-137): 0.0011 | smFRET Histogram, Mean (FRET 0.92, 15μM Glutamate + 5μM MNI-137): 0.00382 | smFRET Histogram, Mean (FRET 0.94, 0μM Glutamate + GPT/Pyruvate + 5μM MNI-137): 8.72E-04 | smFRET Histogram, Mean (FRET 0.96, 0μM Glutamate + GPT/Pyruvate + 5μM MNI-137): 0.001 | smFRET Histogram, Mean (FRET 0.98, 0μM Glutamate + GPT/Pyruvate + 5μM MNI-137): 6.96E-04 | smFRET Histogram, Mean (FRET 1, 0μM Glutamate + GPT/Pyruvate + 5μM MNI-137): 4.51E-04 | smFRET Histogram, Mean (FRET 1.02, 0μM Glutamate + GPT/Pyruvate + 5μM MNI-137): 2.62E-04 | smFRET Histogram, Mean (FRET 1.04, 0μM Glutamate + GPT/Pyruvate + 5μM MNI-137): 1.50E-04 | smFRET Histogram, Mean (FRET 1.06, 0μM Glutamate + GPT/Pyruvate + 5μM MNI-137): 2.86E-05 | smFRET Histogram, Mean (FRET 1.08, 0μM Glutamate + GPT/Pyruvate + 5μM MNI-137): 2.33E-05 | smFRET Histogram, Mean (FRET 1.1, 0μM Glutamate + GPT/Pyruvate + 5μM MNI-137): 8.10E-05 | smFRET Histogram, Mean (FRET 1.12, 0μM Glutamate + GPT/Pyruvate + 5μM MNI-137): 1.94E-05 | smFRET Histogram, Mean (FRET 1.14, 0μM Glutamate + GPT/Pyruvate + 5μM MNI-137): 1.94E-05 | smFRET Histogram, Mean (FRET 1.16, 0μM Glutamate + GPT/Pyruvate + 5μM MNI-137): 9.97E-06 | smFRET Histogram, Mean (FRET 1.18, 0μM Glutamate + GPT/Pyruvate + 5μM MNI-137): 0 | smFRET Histogram, Mean (FRET 1.2, 0μM Glutamate + GPT/Pyruvate + 5μM MNI-137): 0 | Mean occupancy, state 1 (inactive, FRET 0.24) [1]: 0.7486 | Mean occupancy, state 2 (intermediate 1, FRET 0.38) [1]: 0.222 | Mean occupancy, state 3 (intermediate 2, FRET 0.70) [1]: 0.02038 | Mean occupancy, state 4 (active, FRET 0.87) [1]: 0.00903 | Mean occupancy, state 1 (inactive, FRET 0.24) [2]: 0.1039 | Mean occupancy, state 2 (intermediate 1, FRET 0.38) [2]: 0.7494 | Mean occupancy, state 3 (intermediate 2, FRET 0.70) [2]: 0.1272
Substance: MNI-137
